Numbered stars: 1 amine (or outer) side, 2 acyl side, 3 side chain; on linkers, the order of the positions; unused ones are H or OH. Square brackets hold non-standard residues; d marks the D form. Peptide text beside a SMILES is read from it. * marks the point of attachment. Trp(βS-Me,7-OMe) = COc1cccc2c([C@H](C)[C@H](N)C(=O)O)c[nH]c12; dPro(trans-4-NMe3+) = C[N+](C)(C)[C@@H]1CN[C@@H](C(=O)O)C1; Trp(1-CH2COOH) = N[C@@H](Cc1cn(CC(=O)O)c2ccccc12)C(=O)O; Phe(4-SO2NH2) = N[C@@H](Cc1ccc(S(N)(=O)=O)cc1)C(=O)O; Trp(7-CN) = N#Cc1cccc2c(C[C@H](N)C(=O)O)c[nH]c12; X27 = O=C(O)c1ccc(C[C@H](N[*:1])C(=O)[*:2])cc1F; Phe(3-CONH2) = NC(=O)c1cccc(C[C@H](N)C(=O)O)c1; Phe(4-CONH2) = NC(=O)c1ccc(C[C@H](N)C(=O)O)cc1; Phe(4-COOH) = N[C@@H](Cc1ccc(C(=O)O)cc1)C(=O)O; Trp(7-aza) = N[C@@H](Cc1c[nH]c2ncccc12)C(=O)O; Pip(5R-OH) = O=C(O)[C@@H]1CC[C@@H](O)CN1; X1 = O=C([C@@H]1CC[C@H](N[*:1])C1)[*:2]; Gly(Nα-CH2CH2CONH2) = NC(=O)CCNCC(=O)O; Pip(4-aza) = O=C(O)[C@@H]1CNCCN1; 4Pal = N[C@@H](Cc1ccncc1)C(=O)O; dHyp = O=C(O)[C@H]1C[C@H](O)CN1; Ahp(2) = CCCCC[C@H](N)C(=O)O; αMeS = C[C@](N)(CO)C(=O)O; Carboxymethyl = O=C(O)C*; Nle = CCCC[C@H](N)C(=O)O; Sar = CNCC(=O)O
Target: T1, TNFα-induced NF-κB signal transduction pathway (TNFR1 signaling) in THP-1 cells (Homo sapiens, UniProt P19438)
T1 sequence (P19438 30-455): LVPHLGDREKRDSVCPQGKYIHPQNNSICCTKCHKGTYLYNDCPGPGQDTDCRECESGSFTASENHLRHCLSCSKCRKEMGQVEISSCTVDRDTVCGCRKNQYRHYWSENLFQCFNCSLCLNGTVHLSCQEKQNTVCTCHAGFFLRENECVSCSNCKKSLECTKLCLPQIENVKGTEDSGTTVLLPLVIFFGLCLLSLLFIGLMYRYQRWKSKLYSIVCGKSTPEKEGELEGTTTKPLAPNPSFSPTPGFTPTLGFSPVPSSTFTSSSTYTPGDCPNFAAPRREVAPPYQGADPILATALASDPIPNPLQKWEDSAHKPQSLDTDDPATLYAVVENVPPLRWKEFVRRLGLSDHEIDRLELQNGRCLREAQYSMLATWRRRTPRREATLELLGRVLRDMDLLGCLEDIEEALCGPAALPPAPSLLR
Experiment: THP-1 Lucia NF-κB reporter cell assay, inhibition of TNFα-induced NF-κB signaling
Assay type: cell-based
Settings: THP-1 NF-κB Lucia reporter cells, 10 ng/mL TNFα, 16-18 h, secreted luciferase; read-out: THP-1 IC50
In short: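 Macrocyclic peptides were preincubated 1 h at 37 °C with THP-1 NF-κB-Lucia reporter cells (20,000 cells/well) in antibiotic-free RPMI 1640/10% FBS, then stimulated with 10 ng/mL human TNFα overnight (16-18 h). Secreted luciferase in supernatant was read by luminescence; IC50 from 4-parameter logistic fits.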

Q: With `CCCC[C@@H]1NC(=O)[C@@H]2CC[C@@H](C2)NC(=O)[C@H]([C@@H](C)c2c[nH]c3c(OC)cccc23)NC(=O)CN(C)C(=O)[C@H](Cc2ccc(C(=O)O)cc2)NC(=O)[C@H](Cc2ccc(S(N)(=O)=O)cc2)NC(=O)[C@](C)(CO)NC(=O)[C@H](Cc2c[nH]c3c(C#N)cccc23)NC(=O)[C@H](Cc2ccc(C(=O)O)cc2)NC(=O)[C@H](CC(N)=O)NC(=O)[C@H]2C[C@H](OCC(=O)O)CN2C(=O)[C@H](Cc2c[nH]c3ncccc23)NC(=O)[C@@H]2CC[C@@H](O)CN2C(=O)[C@H](Cc2ccncc2)NC1=O` [SEQ ID NO. 4] (cyclo([4Pal][Pip(5R-OH)][Trp(7-aza)][dHyp](Carboxymethyl)N[Phe(4-COOH)][Trp(7-CN)][αMeS][Phe(4-SO2NH2)][Phe(4-COOH)][Sar][Trp(βS-Me,7-OMe)][X1][Nle])) as the compound, how does the IC50 read?
A: The IC50 was 0.5 nM.

Q: How did the IC50 turn out when `CCCC[C@@H]1NC(=O)[C@@H]2CC[C@@H](C2)NC(=O)[C@H]([C@@H](C)c2c[nH]c3c(OC)cccc23)NC(=O)CN(C)C(=O)[C@H](Cc2ccc(C(=O)O)cc2)NC(=O)[C@H](Cc2ccc(C(N)=O)cc2)NC(=O)[C@](C)(CO)NC(=O)[C@H](Cc2c[nH]c3c(C#N)cccc23)NC(=O)[C@H](Cc2ccc(C(=O)O)c(F)c2)NC(=O)[C@H](CC(N)=O)NC(=O)[C@H]2C[C@H](O)CN2C(=O)[C@H](Cc2c[nH]c3ncccc23)NC(=O)[C@@H]2CC[C@@H](O)CN2C(=O)[C@H](Cc2ccncc2)NC1=O` [SEQ ID NO. 8] (cyclo([4Pal][Pip(5R-OH)][Trp(7-aza)][dHyp]N[X27][Trp(7-CN)][αMeS][Phe(4-CONH2)][Phe(4-COOH)][Sar][Trp(βS-Me,7-OMe)][X1][Nle])) was run?
A: The IC50 was 0.7 nM.

Q: How did the IC50 turn out when `CCCC[C@@H]1NC(=O)[C@@H]2CC[C@@H](C2)NC(=O)[C@H]([C@@H](C)c2c[nH]c3c(OC)cccc23)NC(=O)CN(C)C(=O)[C@H](Cc2ccc(C(N)=O)cc2)NC(=O)[C@H](Cc2ccc(S(N)(=O)=O)cc2)NC(=O)[C@](C)(CO)NC(=O)[C@H](Cc2c[nH]c3c(C#N)cccc23)NC(=O)[C@H](Cc2ccc(C(=O)O)cc2)NC(=O)[C@H](CC(N)=O)NC(=O)[C@H]2C[C@H]([N+](C)(C)C)CN2C(=O)[C@H](Cc2cn(CC(=O)O)c3ccccc23)NC(=O)[C@@H]2CC[C@@H](O)CN2C(=O)[C@H](Cc2ccncc2)NC1=O` [SEQ ID NO. 9] (cyclo([4Pal][Pip(5R-OH)][Trp(1-CH2COOH)][dPro(trans-4-NMe3+)]N[Phe(4-COOH)][Trp(7-CN)][αMeS][Phe(4-SO2NH2)][Phe(4-CONH2)][Sar][Trp(βS-Me,7-OMe)][X1][Nle])) was run?
A: Its IC50 is 0.6 nM.

Q: Which IC50 does the source give for `CCCCC[C@@H]1NC(=O)[C@@H]2CC[C@@H](C2)NC(=O)[C@H]([C@@H](C)c2c[nH]c3c(OC)cccc23)NC(=O)CN(C)C(=O)[C@H](Cc2cccc(C(N)=O)c2)NC(=O)[C@H](Cc2ccc(C(N)=O)cc2)NC(=O)[C@](C)(CO)NC(=O)[C@H](Cc2c[nH]c3c(C#N)cccc23)NC(=O)[C@H](Cc2ccc(C(=O)O)cc2)NC(=O)[C@H](CC(N)=O)NC(=O)CN(CCC(N)=O)C(=O)[C@H](Cc2c[nH]c3ccccc23)NC(=O)[C@@H]2CNCCN2C(=O)[C@H](Cc2ccncc2)NC1=O` [SEQ ID NO. 10] (cyclo([4Pal][Pip(4-aza)]W[Gly(Nα-CH2CH2CONH2)]N[Phe(4-COOH)][Trp(7-CN)][αMeS][Phe(4-CONH2)][Phe(3-CONH2)][Sar][Trp(βS-Me,7-OMe)][X1][Ahp(2)])) here?
A: Its IC50 is 0.8 nM.

Q: With `CCCC[C@@H]1NC(=O)[C@@H]2CC[C@@H](C2)NC(=O)[C@H]([C@@H](C)c2c[nH]c3c(OC)cccc23)NC(=O)CN(C)C(=O)[C@H](Cc2ccc(C(N)=O)cc2)NC(=O)[C@H](Cc2ccc(C(N)=O)cc2)NC(=O)[C@](C)(CO)NC(=O)[C@H](Cc2c[nH]c3c(C#N)cccc23)NC(=O)[C@H](Cc2ccc(C(=O)O)cc2)NC(=O)[C@H](CC(N)=O)NC(=O)[C@H]2C[C@H](OC)CN2C(=O)[C@H](Cc2c[nH]c3ccccc23)NC(=O)[C@@H]2CC[C@@H](O)CN2C(=O)[C@H](Cc2ccncc2)NC1=O` [SEQ ID NO. 14] (cyclo([4Pal][Pip(5R-OH)]W[dHyp](Me)N[Phe(4-COOH)][Trp(7-CN)][αMeS][Phe(4-CONH2)][Phe(4-CONH2)][Sar][Trp(βS-Me,7-OMe)][X1][Nle])) as the compound, how does the IC50 read?
A: Its IC50 is 0.8 nM.

Reference: patent US20240287138A1, “CYCLIC PEPTIDES FOR INHIBITING TNF RECEPTOR 1 ACTIVITY” (Merck Sharp & Dohme LLC, priority 2023, published 2024)
